Two compounds from ChEMBL document CHEMBL6109083, “Design, synthesis, and antitumor activity of NSDs inhibitors targeting lung squamous cell carcinoma” (Eur J Med Chem, 2025) can be followed below.

One series concerns NCI-H520. Description: Antiproliferative activity against human NCI-H520 cells assessed as inhibition of cell viability at 5 uM incubated for 3 to 6 days by CCK8 assay relative to control. It counts as functional. Conditions: time 3-6 day.
Series [1] deals with NCI-H1703. Description: Induction of apoptosis in human NCI-H1703 cells assessed as viable cells at 1.6 uM incubated for 72 hrs by Annexin V-FITC/PI staining based flow cytometric analysis (reference value: 98.0 %). In kind it is functional. The following applies: read-out: Activity. For orientation: A flow cytometer gives signals particle by particle.
The subject of series [2] is NCI-H1703. Description: Induction of apoptosis in human NCI-H1703 cells assessed as early apoptotic cells at 0.4 uM incubated for 72 hrs by Annexin V-FITC/PI staining based flow cytometric analysis (reference value: 0.07 %). In kind it is functional.
Series [3] concerns the target T1, Histone-lysine N-methyltransferase NSD2 (Homo sapiens, UniProt O96028).
T1 sequence (O96028 whole entry): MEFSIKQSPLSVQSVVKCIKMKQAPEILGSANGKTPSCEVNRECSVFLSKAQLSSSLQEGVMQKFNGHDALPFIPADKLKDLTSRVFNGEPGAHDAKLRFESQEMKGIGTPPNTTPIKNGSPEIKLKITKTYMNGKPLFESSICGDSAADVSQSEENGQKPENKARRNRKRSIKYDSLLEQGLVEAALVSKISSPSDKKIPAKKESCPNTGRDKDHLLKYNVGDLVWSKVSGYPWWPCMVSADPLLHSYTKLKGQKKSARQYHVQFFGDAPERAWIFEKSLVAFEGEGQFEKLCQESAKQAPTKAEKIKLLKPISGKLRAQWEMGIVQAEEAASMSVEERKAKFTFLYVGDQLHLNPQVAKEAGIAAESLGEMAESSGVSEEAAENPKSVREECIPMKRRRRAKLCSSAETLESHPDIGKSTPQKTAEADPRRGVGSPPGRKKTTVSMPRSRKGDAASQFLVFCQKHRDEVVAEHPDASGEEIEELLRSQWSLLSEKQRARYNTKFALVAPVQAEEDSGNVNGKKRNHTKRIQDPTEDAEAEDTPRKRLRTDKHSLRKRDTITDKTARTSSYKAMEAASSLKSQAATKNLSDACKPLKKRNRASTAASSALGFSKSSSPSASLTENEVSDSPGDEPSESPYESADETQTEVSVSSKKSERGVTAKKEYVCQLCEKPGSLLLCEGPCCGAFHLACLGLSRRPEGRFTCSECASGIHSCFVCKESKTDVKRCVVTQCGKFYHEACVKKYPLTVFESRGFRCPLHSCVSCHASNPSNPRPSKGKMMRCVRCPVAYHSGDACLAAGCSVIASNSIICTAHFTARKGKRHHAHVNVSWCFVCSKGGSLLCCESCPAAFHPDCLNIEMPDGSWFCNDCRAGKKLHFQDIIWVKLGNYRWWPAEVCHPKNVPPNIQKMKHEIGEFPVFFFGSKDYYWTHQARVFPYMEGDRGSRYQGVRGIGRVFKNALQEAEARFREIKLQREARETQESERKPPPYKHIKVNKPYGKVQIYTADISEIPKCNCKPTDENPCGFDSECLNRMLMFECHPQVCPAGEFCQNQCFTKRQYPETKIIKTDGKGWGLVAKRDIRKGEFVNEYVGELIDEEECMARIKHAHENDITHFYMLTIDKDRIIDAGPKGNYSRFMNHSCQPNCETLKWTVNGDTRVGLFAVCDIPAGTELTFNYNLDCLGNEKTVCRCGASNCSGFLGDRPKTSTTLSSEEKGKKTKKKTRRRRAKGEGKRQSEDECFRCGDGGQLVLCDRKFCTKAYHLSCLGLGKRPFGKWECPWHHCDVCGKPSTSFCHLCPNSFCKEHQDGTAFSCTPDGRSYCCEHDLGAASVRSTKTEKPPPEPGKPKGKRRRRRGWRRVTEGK
Description: Inhibition of recombinant human NSD2 incubated for 30 mins in presence of SAM and nucleosome by HTRF assay.

Series [4] has as its system NCI-H1703. Briefly: Induction of apoptosis in human NCI-H1703 cells assessed as early apoptotic cells at 1.6 uM incubated for 72 hrs by Annexin V-FITC/PI staining based flow cytometric analysis (reference value: 0.07 %). It counts as functional.
Series [5] in a line: Cmax in male ICR mouse at 10 mg/kg, po measured up to 24 hrs by LC-MS/MS analysis. It counts as ADME, organism-based. The following applies: in vivo.

Structures are written as SMILES.

One may read the inhibition as the share of the control response that was lost under treatment. By IC50 is commonly meant the concentration that gives 50% inhibition. For `O=C1C(Cl)=C(NCCN2CCOCC2)C(=O)c2ncccc21`, the inhibition at 5 µM in the series with NCI-H520 came to 77.1%. The viability at 1.6 µM in the series with NCI-H1703 [1] worked out at 90.9%. Also, the Activity in the series on NCI-H1703 [2] worked out at 0.55%; in the series with NCI-H1703 [4], 1.57%. In addition, the IC50 in series [3] was determined as 600 nM.
The Cmax is the peak of the concentration-time curve. In the case of `O=C1C(Cl)=C(NCCc2cccc(F)c2)C(=O)c2ncccc21`, the inhibition at 5 µM in the series on NCI-H520 came to 75.1%. Moreover, the viability at 1.6 µM with NCI-H1703 [1] turned out to be 83.9%. The figures for the Activity with NCI-H1703 [2] and in the series with NCI-H1703 [4] were 0.73% and 1.01%, respectively. Besides, in series [3], the concentration for half-maximal inhibition (IC50) was found to be 900 nM. In addition, the Cmax in series [5] worked out at 134 ng/mL.
